# Target: human Kv1.3 (Homo sapiens (Human), UniProt P22001)
# Test: Kv1.3 potency evaluation, automated patch clamp electrophysiology (QPatch HT) in CHO-Kv1.3 cells
# Type: cell-based
# Details: whole-cell QPatch HT, % inhibition of charge, step to +30 mV, four concentrations, N≥3 cells, read-out: hKv1.3 IC50
# Text: Biological Assays Kv1.3 Potency Evaluation Electrophysiology Recordings
# A proprietary Chinese hamster ovary cell line stably expressing exogenous human a-subunits of Kv1.3 (CHO-Kv1.3) channel, validated biophysically and pharmacologically in house, was used to assess the ability of test compounds to block Kv1.3 currents using automated patch clamp electrophysiology. The QPatch HT system (Sophion Bioscience A/S, Denmark) was used with the conventional whole-cell configuration. This system is an automated, chip-based planar patch clamp device allowing for up to 48 parallel independent experiments in one experimental assay run. Cells are added to each well and drawn by suction onto a small aperture to obtain a Gigaohm seal between the cell membrane and treated silicon surface, and whole-cell recordings initiated after access is achieved by suction and/or voltage pulses. The QPatch HT uses static perfusion, whereby a small volume of recording solution or drug is added to a reservoir on the chip and the solution perfuses across the cell through quartz-lined microfluidic channels; this solution is removed by capillary action when the next sample application is made.
# CHO-Kv1.3 cells were prepared for experiments by dissociation from T175 cell culture flasks using trypsin-EDTA (0.05%), cells were kept in serum free media in the cell hotel on board the QPatch HT. These cells were sampled, washed and re-suspended in extracellular recording solution by the QPatch HT immediately before application to the recording well site on the chip. Experiments were performed using the following solutions; extracellular solution contained (in mM); 150 NaCl, 10 KCl, 1 MgCl2, 3 CaCl2), 10 Glucose and 10 HEPES (pH 7.4, NaOH) and intracellular solution contained (in mM); 20 KCl, 120 KF, 10 HEPES, 10 EGTA, 5 ATP (pH 7.2, KOH).
# The potency (Inhibitory Concentration 50%, IC50) of synthesized compounds against Kv1.3 was determined from concentration-response relationships established by cumulatively applying four escalating concentrations of test compound to an individual cell and a minimum of N≥3 individual cells of data per compound were used to generate the IC50 value.
# On achieving the whole-cell configuration; two additions of vehicle (0.1-0.3% DMSO v/v) were applied to each cell in two bolus additions with a two minute recording period between each addition (four minutes total recording time). Following the vehicle period, four concentrations of test sample were applied as two bolus additions per test concentration at two minute intervals, and the effects on current measured during the four minute recording period.
# Currents were elicited using a single step voltage protocol. From a holding potential of −80 mV the cell is depolarised to +30 mV (500 ms) resulting in an outward current before finally repolarising the cell by returning to the holding potential. The command voltage was applied at a frequency of 0.067 Hz throughout the duration of the experiment. For each sweep of the voltage protocol membrane current and the passive properties of the individual cells were recorded by QPatch assay software (version 5.2). Cursors were placed to calculate the charge (integral of the current recorded during cursor interval) between 2-490 ms (0.4-99%) of the 500 ms step to +30 mV.
# The % inhibition of charge for each test concentration application period was calculated as the reduction in mean charge at the end of each concentration test period relative to the charge value measured at the end of the control (i.e. vehicle) period. Sigmoidal concentration response curves (four parameter logistic curve) were fitted to the % inhibition rom which the IC50 was determined. Curve fits were constrained at 0 and 100%.
# Chain of human Kv1.3 (P22001 whole entry): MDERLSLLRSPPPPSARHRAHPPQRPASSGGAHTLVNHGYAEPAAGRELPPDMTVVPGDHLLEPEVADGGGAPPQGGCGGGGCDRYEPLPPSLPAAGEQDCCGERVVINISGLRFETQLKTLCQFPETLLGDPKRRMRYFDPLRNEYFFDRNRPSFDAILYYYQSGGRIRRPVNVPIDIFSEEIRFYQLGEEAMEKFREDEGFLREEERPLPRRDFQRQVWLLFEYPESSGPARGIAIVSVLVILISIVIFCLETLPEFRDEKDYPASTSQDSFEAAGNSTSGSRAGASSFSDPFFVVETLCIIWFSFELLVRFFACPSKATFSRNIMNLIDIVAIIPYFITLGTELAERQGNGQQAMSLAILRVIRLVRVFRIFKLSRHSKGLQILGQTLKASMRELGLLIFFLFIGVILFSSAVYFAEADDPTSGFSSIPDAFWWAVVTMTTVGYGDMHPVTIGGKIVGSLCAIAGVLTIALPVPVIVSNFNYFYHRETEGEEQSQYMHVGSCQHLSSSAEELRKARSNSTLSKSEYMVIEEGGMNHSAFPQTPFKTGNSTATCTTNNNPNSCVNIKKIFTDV
row,SMILES,IC50 [nM]
1,CC1(C)N=C(C23CC(N(Cc4ccc(Cl)c(F)c4)S(=O)(=O)c4ccccc4)(C2)C3)N[C@H]1C(=O)N1CC2CC2C1 (mixture of isomers) [Example 81],61
2,CC1(C)N=C(C23CC(N(Cc4ccc(Cl)cc4)S(=O)(=O)c4ccccc4)(C2)C3)N[C@H]1C(=O)NC1CC(C(F)F)C1 (mixture of isomers) [Example 101],67
3,CCCS(=O)(=O)N(Cc1ccc(Cl)c(Cl)c1)C12CC(C3=NC(C)(C)[C@H](C(=O)N4CC5CCC(C4)C5(F)F)N3)(C1)C2 (mixture of isomers) [Example 187],110
4,CC1(C)N=C(C23CC(N(Cc4ccc(C(F)(F)F)c(Cl)c4)S(=O)(=O)c4ccccc4)(C2)C3)N[C@H]1C(=O)NCCC(F)(F)F (mixture of isomers) [Example 221],169
5,CN(CC1CC1(F)F)C(=O)[C@@H]1NC(C23CC(N(Cc4ccc(Cl)c(F)c4)S(=O)(=O)c4ccccc4)(C2)C3)=NC1(C)C (mixture of isomers) [Example 69],55
6,CN(C[C@H]1CC1(F)F)C(=O)[C@@H]1NC(C23CC(N(Cc4ccc(Cl)c(F)c4)S(=O)(=O)c4ccccc4)(C2)C3)=NC1(C)C (mixture of isomers) [Example 83],61
7,CN(CCC(F)(F)F)C(=O)[C@@H]1NC(C23CC(N(Cc4ccc(Cl)c(Cl)c4)S(=O)(=O)CCC(C)(F)F)(C2)C3)=NC1(C)C (mixture of isomers) [Example 117],73
8,CC1(C)N=C(C23CC(N(Cc4ccc(Cl)c(Cl)c4)S(=O)(=O)CCCF)(C2)C3)N[C@H]1C(=O)NCCC(F)(F)F (mixture of isomers) [Example 128],77
9,CC1(C)N=C(C23CC(N(Cc4ccc(Cl)c(F)c4)S(=O)(=O)c4ccccc4)(C2)C3)N[C@H]1C(=O)NCC1CC1(F)F (mixture of isomers) [Example 14],33
10,"CC1(C)N=C(C23CC(N(Cc4ccc(Cl)c(F)c4)S(=O)(=O)c4ccccc4)(C2)C3)N[C@H]1C(=O)NC12CC(C1)C2 [Example 1, (R)-N-(Bicyclo[1.1.1]pentan-1-yl)-2-(3-(N-(4-chloro-3-fluorobenzyl)phenylsulfonamido)bicyclo[1.1.1]pentan-1-yl)-4,4-dimethyl-4,5-dihydro-1H-imidazole-5-carboxamide]",35
11,CC1(C)N=C(C23CC(N(Cc4ccc(Cl)c(Cl)c4)S(=O)(=O)CCC(F)F)(C2)C3)N[C@H]1C(=O)NC[C@H]1CC1(F)F (mixture of isomers) [Example 179],105
12,CC1(C)N=C(C23CC(N(Cc4ccc(Cl)c(Cl)c4)S(=O)(=O)CCC(F)F)(C2)C3)N[C@H]1C(=O)NCC(F)(F)C(F)(F)F (mixture of isomers) [Example 210],144
13,CC1(C)N=C(C23CC(N(Cc4ccc(Cl)c(F)c4)S(=O)(=O)c4ccccc4)(C2)C3)N[C@H]1C(=O)NCCCC(F)(F)F (mixture of isomers) [Example 108],71
14,CC1(C)N=C(C23CC(N(Cc4ccc(Cl)cc4)S(=O)(=O)N4CCCC4)(C2)C3)N[C@H]1C(=O)NCCC(F)(F)F (mixture of isomers) [Example 43],46
15,CN(CC(F)(F)C(F)(F)F)C(=O)[C@@H]1NC(C23CC(N(Cc4ccc(Cl)c(Cl)c4)S(=O)(=O)c4ccccc4)(C2)C3)=NC1(C)C (mixture of isomers) [Example 215],159
16,CC1(C)N=C(C23CC(N(Cc4ccc(Cl)cc4)S(=O)(=O)C4CCCCC4)(C2)C3)N[C@H]1C(=O)NCCC(F)(F)F (mixture of isomers) [Example 42],46
17,CC(F)(F)CCS(=O)(=O)N(Cc1ccc(Cl)cc1)C12CC(C3=NC(C)(C)[C@H](C(=O)NCCC(F)(F)F)N3)(C1)C2 (mixture of isomers) [Example 93],64
18,CC1(C)N=C(C23CC(N(Cc4ccc(Cl)cc4)S(=O)(=O)c4ccc[nH]c4=O)(C2)C3)N[C@H]1C(=O)NCCC(F)(F)F (mixture of isomers) [Example 295],21400
19,CC1(C)N=C(C23CC(N(Cc4ccc(Cl)cc4)S(=O)(=O)CC4CC4)(C2)C3)N[C@H]1C(=O)NCCC(F)(F)F (mixture of isomers) [Example 4],79
20,CC1(C)N=C(C23CC(N(Cc4ccc(Cl)cc4)S(=O)(=O)c4ccccc4)(C2)C3)N[C@H]1C(=O)NCc1c(F)cc(F)cc1F (mixture of isomers) [Example 154],91

# Further lines, results first:
row,IC50 [nM],SMILES
1,57,CC1(C)N=C(C23CC(N(Cc4ccc(Cl)c(F)c4)S(=O)(=O)c4ccccc4)(C2)C3)N[C@H]1C(=O)N1CCCC12CCC2 (mixture of isomers) [Example 71]
2,64,CC1(C)N=C(C23CC(N(Cc4ccc(Cl)c(F)c4)S(=O)(=O)c4ccccc4)(C2)C3)N[C@H]1C(=O)N1CCC(F)(F)C1 (mixture of isomers) [Example 91]
3,75,CC1(C)N=C(C23CC(N(Cc4ccc(Cl)c(F)c4)S(=O)(=O)c4ccccc4)(C2)C3)N[C@H]1C(=O)N1CCC(F)CC1 (mixture of isomers) [Example 124]
4,552,CCCC1(C(=O)NCC2CCC2)CN=C(C23CC(N(Cc4ccc(C(F)(F)F)cc4)S(=O)(=O)c4ccc(F)cc4)(C2)C3)N1 (centres unmarked) [Example 273]
5,99,CC1(C)N=C(C23CC(N(Cc4ccc(C(F)(F)F)cc4)S(=O)(=O)c4ccc(F)cc4)(C2)C3)NC1C(=O)NCC1(C#N)CCC1 (centres unmarked) [Example 164]
6,125,CC(C)NC(=O)[C@]1(C)CN=C(C23CC(N(Cc4ccc(C(F)(F)F)cc4)S(=O)(=O)c4ccc(F)cc4)(C2)C3)N1 (mixture of isomers) [Example 196]
7,58,C[C@H](NC(=O)[C@@H]1NC(C23CC(N(Cc4ccc(Cl)c(F)c4)S(=O)(=O)c4ccccc4)(C2)C3)=NC1(C)C)C(F)(F)F (mixture of isomers) [Example 73]
8,108,CCCC1(C(=O)NC(C)C)CN=C(C23CC(N(Cc4ccc(C(F)(F)F)cc4)S(=O)(=O)c4ccc(F)cc4)(C2)C3)N1 (centres unmarked) [Example 182]
9,63,CC1(C)N=C(C23CC(N(Cc4ccc(Cl)c(F)c4)S(=O)(=O)c4ccccc4)(C2)C3)N[C@H]1C(=O)N1CC2CCC(C1)C2(F)F (mixture of isomers) [Example 88]
10,404,CC1(C)CCN(C(=O)[C@@]2(C)CN=C(C34CC(N(Cc5ccc(C(F)(F)F)cc5)S(=O)(=O)c5ccc(F)cc5)(C3)C4)N2)C1 (mixture of isomers) [Example 264]
11,159,C[C@]1(C(=O)NCC2CCC2)CN=C(C23CC(N(Cc4ccc(C(F)(F)F)cc4)S(=O)(=O)c4ccc(F)cc4)(C2)C3)N1 (mixture of isomers) [Example 214]
12,144,O=C(NCC1CCC1)[C@H]1CN=C(C23CC(N(Cc4ccc(C(F)(F)F)cc4)S(=O)(=O)c4ccc(F)cc4)(C2)C3)N1 (mixture of isomers) [Example 209]
13,84,CC1(C)N=C(C23CC(N(Cc4ccc(C(F)(F)F)cc4)S(=O)(=O)c4ccccc4)(C2)C3)N[C@H]1C(=O)NCCC(F)(F)F (mixture of isomers) [Example 138]
14,494,CC1(C)N=C(C23CC(N(Cc4ccc(C(F)(F)F)cc4)S(=O)(=O)c4ccc(F)cc4)(C2)C3)NC1C(=O)NCC1(O)CCC1 (centres unmarked) [Example 271]
15,63,CC1(C)N=C(C23CC(N(Cc4ccc(Cl)c(F)c4)S(=O)(=O)c4ccccc4)(C2)C3)N[C@H]1C(=O)N1CC2(CCC2)C1 (mixture of isomers) [Example 87]
16,98,CC1(C)N=C(C23CC(N(Cc4ccc(C(F)(F)F)cc4)S(=O)(=O)c4ccc(F)cc4)(C2)C3)NC1C(=O)NCC1CC1(F)F (centres unmarked) [Example 161]
17,112,CC1(C)N=C(C23CC(N(Cc4ccc(Cl)c(F)c4)S(=O)(=O)c4ccccc4)(C2)C3)N[C@H]1C(=O)N1CCC(C(F)(F)F)CC1 (mixture of isomers) [Example 188]
18,53,CC1(C)N=C(C23CC(N(Cc4ccc(Cl)cc4)S(=O)(=O)c4ccc(Cl)cc4)(C2)C3)N[C@H]1C(=O)NCCC(F)(F)F (mixture of isomers) [Example 66]

# From patent publication US12128028B2, “Heterocyclic sulfonamide derivatives and pharmaceutical uses thereof” (METRION BIOSCIENCES LIMITED, priority 2018, dated 2024)
